Results from ChEMBL document CHEMBL1130437, “Discovery of selective dopamine D4 receptor antagonists: 1-Aryloxy-3-(4-aryloxypiperidinyl)-2-propanols” (Bioorg Med Chem Lett, 1997).

Assays:
Type in all cases: cell-based
[1] = target: T1, D(4) dopamine receptor (Homo sapiens, UniProt P21917); experiment: Binding affinity against human cloned D4 receptor transfected in CHO-K1 cells by [3H]- spiperone displacement.
T1 sequence (P21917 whole entry): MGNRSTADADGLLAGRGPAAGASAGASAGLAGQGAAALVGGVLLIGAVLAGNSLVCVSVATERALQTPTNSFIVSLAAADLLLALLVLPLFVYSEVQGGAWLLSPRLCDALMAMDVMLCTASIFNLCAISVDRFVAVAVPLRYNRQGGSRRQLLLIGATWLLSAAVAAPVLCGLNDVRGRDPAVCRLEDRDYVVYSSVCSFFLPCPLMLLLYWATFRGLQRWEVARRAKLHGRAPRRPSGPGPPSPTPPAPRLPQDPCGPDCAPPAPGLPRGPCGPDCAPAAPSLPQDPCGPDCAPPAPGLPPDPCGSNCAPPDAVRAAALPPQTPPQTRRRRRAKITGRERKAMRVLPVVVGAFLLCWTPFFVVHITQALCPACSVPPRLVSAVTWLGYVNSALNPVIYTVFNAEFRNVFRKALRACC

[2] = target: D(2) dopamine receptor (Homo sapiens, UniProt P14416); experiment: Binding affinity against cloned human D2 receptor transfected in CHO-K1 cells using [3H]- spiperone as radioligand.
Sequence of D(2) dopamine receptor (P14416 whole entry): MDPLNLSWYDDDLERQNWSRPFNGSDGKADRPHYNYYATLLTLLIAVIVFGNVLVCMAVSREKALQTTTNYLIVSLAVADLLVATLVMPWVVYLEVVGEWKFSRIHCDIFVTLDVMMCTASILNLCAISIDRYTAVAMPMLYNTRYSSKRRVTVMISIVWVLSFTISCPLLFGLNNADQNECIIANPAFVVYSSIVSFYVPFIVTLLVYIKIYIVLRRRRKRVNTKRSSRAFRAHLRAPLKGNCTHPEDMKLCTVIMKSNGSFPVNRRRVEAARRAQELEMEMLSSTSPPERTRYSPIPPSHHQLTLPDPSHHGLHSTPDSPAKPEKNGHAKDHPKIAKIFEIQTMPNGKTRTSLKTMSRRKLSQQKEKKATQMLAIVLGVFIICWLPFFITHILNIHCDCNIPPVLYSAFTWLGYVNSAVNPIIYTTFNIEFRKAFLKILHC

[3] = target: D(3) dopamine receptor (Homo sapiens, UniProt P35462); experiment: Binding affinity against cloned human D3 receptor transfected in CHO-K1 cells using [3H]- spiperone as radioligand.
Sequence of D(3) dopamine receptor (P35462 whole entry): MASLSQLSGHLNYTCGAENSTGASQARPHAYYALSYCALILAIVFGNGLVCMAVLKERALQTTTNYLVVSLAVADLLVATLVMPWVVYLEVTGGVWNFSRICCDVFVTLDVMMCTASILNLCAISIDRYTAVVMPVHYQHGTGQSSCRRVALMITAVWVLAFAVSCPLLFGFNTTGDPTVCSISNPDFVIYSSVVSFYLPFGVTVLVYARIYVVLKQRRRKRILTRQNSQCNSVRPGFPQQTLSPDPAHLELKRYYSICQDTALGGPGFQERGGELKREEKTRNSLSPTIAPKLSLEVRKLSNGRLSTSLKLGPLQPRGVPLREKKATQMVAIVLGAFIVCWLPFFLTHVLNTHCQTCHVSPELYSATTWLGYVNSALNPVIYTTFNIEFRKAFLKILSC

| Ki [1] [nM] | Ki [2] [nM] | Ki [3] [nM] | Compound |
| --- | --- | --- | --- |
| 45 |  |  | COC(COc1cccc2ccccc12)CN1CCC(Cc2ccccc2)CC1 (stereo not given) |
| 45 |  |  | OC(COc1cccc2ccccc12)CN1CCC(Cc2ccc(Cl)cc2)CC1 (stereo not given) |
| 18 | 2340 |  | OC(COc1cccc2ccccc12)CN1CCC(Oc2ccccc2)CC1 (stereo not given) |
| 52 |  |  | Cc1ccc(CC2CCN(CC(O)COc3cccc4ccccc34)CC2)cc1 (stereo not given) |
| 32 |  |  | OC(COc1cccc2ccccc12)CN1CCC(Sc2ccccc2)CC1 (stereo not given) |
| 72 |  |  | CC(COc1cccc2ccccc12)CN1CCC(Cc2ccccc2)CC1 (stereo not given) |
| 32 |  |  | OC(COc1cccc2ccccc12)CN1CCC(Cc2ccc(F)cc2)CC1 (stereo not given) |
| 74 |  |  | COc1ccc(CC2CCN(CC(O)COc3cccc4ccccc34)CC2)cc1 (stereo not given) |
| 123 |  |  | COc1ccc(OCC(O)CN2CCC(Cc3ccccc3)CC2)cc1 (stereo not given) |
| 50 |  |  | c1ccc(CC2CCN(CCCOc3cccc4ccccc34)CC2)cc1 |
| 2 | 244 | 220 | O[C@@H](COc1ccccc1)CN1CCC(Oc2ccccc2)CC1 |
| 34 |  |  | OC(COc1ccccc1)CN1CCC(Cc2ccccc2)CC1 (stereo not given) |
| 11.6 | 709 | 457 | O[C@H](COc1ccccc1)CN1CCC(Oc2ccccc2)CC1 |
| 18 |  |  | OC(COc1ccc(Cl)cc1)CN1CCC(Cc2ccccc2)CC1 (stereo not given) |
| 3.6 | 911 | 537 | OC(COc1ccccc1)CN1CCC(Oc2ccccc2)CC1 (racemic) |
| 59 |  |  | O=[N+]([O-])c1ccc(OCC(O)CN2CCC(Cc3ccccc3)CC2)cc1 (stereo not given) |
| 26 | 1440 |  | OC(COc1cccc2ccccc12)CN1CCC(Cc2ccccc2)CC1 (stereo not given) |
